Measurements reported in article PMC6615252, “The binding affinity of PTPN13’s tandem PDZ2/3 domain is allosterically modulated” (BMC Molecular and Cell Biology, 2019).
“And” between values parts separate entries of the source, which are not always exact repeats. Equal entries are not always repeated. “Also recorded” adds a separate entry of the source. Blank lines part the entries; values can stand above or below the molecule they belong to. Residues, ends and D or L forms follow the SMILES beside them.

Experiments:
[1] = biological target: PDZ3 domain of PTPN13; conditions: single PDZ3 domain; NMR titration, 298 K, pH 7.4, PBS, DTT added; ref [12]; read-out: dissociation constant KD, PDZ3; cited from earlier work
Description: The observed differences for APC binding to PDZ2 versus tandem PDZ2/3 are not large yet still considerable.

[2] = biological target: T1, PDZ2 domain of PTPN13 (Mus musculus, UniProt Q64512); experiment: NMR titration (2D 1H-15N-HSQC chemical shift perturbation) of 15N-enriched single PDZ2 domain with C-terminal dodecapeptides; assay type: binding; conditions: for NMR chemical shift perturbations of PDZ2 on peptide binding: 2D 1H-15N-HSQC, 298 K, pH 7.4
T1 construct: pGEX-2 T-PDZ2 (PTPN13 residues 1347–1450); GST (N, cleaved yes); made in house; host or cells: E. coli BL21(DE3)
T1 sequence (Q64512 1347-1450): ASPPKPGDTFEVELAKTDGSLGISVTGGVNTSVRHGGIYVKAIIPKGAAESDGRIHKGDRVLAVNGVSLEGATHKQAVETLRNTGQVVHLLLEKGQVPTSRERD
Description: (§1) We have applied multidimensional heteronuclear NMR spectroscopy in order to elucidate the binding affinities of the PDZ2 single domain and the tandem domain PDZ2/3 of PTPN13 for the chemically synthesized C-terminal dodecapeptides derived from APC and PRK2. The binding characteristics were analyzed in a titration series of the dodecamer peptides and ^15N isotopically-enriched PDZ2 and PDZ2/3 samples, respectively, and by monitoring the NMR chemical shift perturbations in a series of 2D ^1H-^15N heteronuclear single quantum coherence (HSQC) spectra with increasing ligand concentrations. It could be shown that all peptides bind to the canonical binding groove of PDZ domains (Figs. 1, 2, 3 and 4).
Bacterial expression plasmids pGEX-2 T-PDZ2 (PTPN13 residues 1347–1450), pGEX-2 T-PDZ3 (PTPN13 residues 1474–1580), and pGEX-2 T-PDZ2/3 (PTPN13 residues 1347–1580) were constructed by sub-cloning of PCR-generated PTPN13 cDNA fragments in-frame into appropriate pGEX-2 T vectors.
(§2) NMR spectra were acquired at 298 K on Bruker DRX 600 and AVANCE III HD 700 spectrometers. Typically, NMR samples contained 0.1–0.5 mM uniformly ^13C and/or ^15N-enriched protein in PBS buffer at pH 7.4 including 10% D2O [42–44]. All data were processed with either NMRPipe and analyzed with NMR View or TopSpin (www.bruker.com). […] The interaction between PDZ2 and PDZ3 was analyzed upon titrating PDZ3 to isotopically ^15N-enriched PDZ2 at a molar ratio of 1:1 at 298 K by recording 2D ^1H-^15N-HSQC NMR spectra. […] The differences in backbone ^1H and ^15N NMR chemical shifts were monitored via 2D ^1H-^15N-HSQC NMR spectra. The weighted ^1HN and ^15N chemical shift differences were calculated according to the following equation [45, 47]: […]
(§3) Averaged dissociation constants for the different complexes were calculated from least-squares fitting of the NMR chemical shift perturbations observed for several amino acids as a function of ligand concentration. NMR chemical shift perturbation data were analysed with the ORIGIN software package (www.originlab.com) as previously published. […]

[3] = test system: single PDZ2 domain of PTPN13; conditions: previous study; class I (APC) and III (RIL) ligands; ref [21]; cited from earlier work
Description: Based on the results from the NMR chemical shift perturbation analysis and HADDOCK molecular docking calculations we conclude, that an allosteric effect modulates the APC-binding characteristics of PDZ2 from PTPN13 (Fig. 7). Although peptides rather than the corresponding full-length proteins have been used here, numerous studies have shown before that the last four to six carboxy-terminal amino acids are essential for ligand binding to PDZ domains.

[4] = biological target: T2, PDZ2 in PDZ2/3 tandem domain of PTPN13 (Mus musculus, UniProt Q64512); experiment: NMR titration of PDZ2/3 tandem domain, PDZ2 resonances (PDZ2 in PDZ2/3); assay type: binding; conditions: final stoichiometric ratio APC:PDZ2/3 30:1
T2 construct: pGEX-2 T-PDZ2/3 (PTPN13 residues 1347–1580); GST (N, cleaved yes); made in house; host or cells: E. coli BL21(DE3)
T2 sequence (Q64512 1347-1580): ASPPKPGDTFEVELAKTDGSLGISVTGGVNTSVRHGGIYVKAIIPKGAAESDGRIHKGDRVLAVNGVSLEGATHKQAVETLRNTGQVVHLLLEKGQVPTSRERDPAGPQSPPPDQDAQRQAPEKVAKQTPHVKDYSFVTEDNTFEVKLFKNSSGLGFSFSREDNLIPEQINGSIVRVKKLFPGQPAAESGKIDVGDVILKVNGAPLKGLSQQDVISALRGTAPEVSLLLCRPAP
Description: as §1, with “4). […]” for “4).”
as §2, with “Typically, NMR samples contained 0.1–0.5 mM uniformly ^13C and/or ^15N-enriched protein in PBS buffer at pH 7.4 including 10% D2O [42–44].” left out

[5] = biological target: T3, PDZ3 in PDZ2/3 tandem domain of PTPN13 (Mus musculus, UniProt Q64512); experiment: NMR titration of PDZ2/3 tandem domain, PDZ3 resonances (PDZ3 in PDZ2/3); assay type: binding; conditions: data not shown
T3 construct: pGEX-2 T-PDZ2/3 (PTPN13 residues 1347–1580); GST (N, cleaved yes); made in house; host or cells: E. coli BL21(DE3)
T3 sequence (Q64512 1347-1580): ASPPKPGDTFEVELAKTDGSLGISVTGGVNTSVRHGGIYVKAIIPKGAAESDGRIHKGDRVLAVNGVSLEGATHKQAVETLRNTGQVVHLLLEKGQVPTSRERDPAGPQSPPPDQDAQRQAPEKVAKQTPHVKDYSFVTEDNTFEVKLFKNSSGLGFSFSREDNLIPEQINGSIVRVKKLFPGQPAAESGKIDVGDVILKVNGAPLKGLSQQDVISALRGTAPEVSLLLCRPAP
Description: as §1, with “4). […]” for “4).”
as §2, with “Typically, NMR samples contained 0.1–0.5 mM uniformly ^13C and/or ^15N-enriched protein in PBS buffer at pH 7.4 including 10% D2O [42–44].” left out

[6] = biological target: T4, PDZ2/3 tandem domain of PTPN13 (Mus musculus, UniProt Q64512); experiment: NMR titration of PDZ2/3 tandem domain with APC peptide, chemical shift perturbations and exchange regime; assay type: binding
T4 construct: pGEX-2 T-PDZ2/3 (PTPN13 residues 1347–1580); GST (N, cleaved yes); made in house; host or cells: E. coli BL21(DE3)
T4 sequence (Q64512 1347-1580): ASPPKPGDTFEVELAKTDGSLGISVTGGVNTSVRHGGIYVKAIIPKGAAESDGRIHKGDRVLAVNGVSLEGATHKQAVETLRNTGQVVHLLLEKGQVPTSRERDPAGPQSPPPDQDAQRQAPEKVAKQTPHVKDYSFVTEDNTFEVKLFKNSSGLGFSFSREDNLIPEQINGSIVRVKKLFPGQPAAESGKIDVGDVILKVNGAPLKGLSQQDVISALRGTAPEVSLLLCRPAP
Description: as §1
NMR spectra were acquired at 298 K on Bruker DRX 600 and AVANCE III HD 700 spectrometers. Typically, NMR samples contained 0.1–0.5 mM uniformly ^13C and/or ^15N-enriched protein in PBS buffer at pH 7.4 including 10% D2O [42–44]. All data were processed with either NMRPipe and analyzed with NMR View or TopSpin (www.bruker.com). The backbone assignments were obtained from the BioMagResBank accession numbers 15,199 (PDZ2/3) and 5131 (PDZ2). The interaction between PDZ2 and PDZ3 was analyzed upon titrating PDZ3 to isotopically ^15N-enriched PDZ2 at a molar ratio of 1:1 at 298 K by recording 2D ^1H-^15N-HSQC NMR spectra. […] The differences in backbone ^1H and ^15N NMR chemical shifts were monitored via 2D ^1H-^15N-HSQC NMR spectra. The weighted ^1HN and ^15N chemical shift differences were calculated according to the following equation [45, 47]: […]
as §3, with “published. The error for KD values was calculated from the individual fit of several significant chemical shift perturbations found for the amide resonances located in and/or next to the canonical PDZ binding cleft.” for “published.”

[7] = biological target: T5, APC peptide (Homo sapiens); experiment: NMR titration
T5 chain: KRHSGSYLVTSV

[8] = biological target: T1, PDZ2 domain of PTPN13; experiment: NMR titration of single PDZ3 domain to 15N-enriched PDZ2 domain; assay type: binding; conditions: 15N-PDZ2, molar ratio 1:1, 2D 1H-15N-HSQC, 298 K; stoichiometry limited by solubility
Description: Thus, we titrated the single PDZ3 domain (residues 1491–1579) to the ^15N-enriched PDZ2 domain (residues 1357–1442) and monitored their interaction by recording a series of 2D ^1H-^15N-HSQC NMR spectra (Fig. 4a). […] However, the final maximal stoichiometry of PDZ2 and PDZ3 was approx. 1:1 due to solubility issues.
NMR spectra were acquired at 298 K on Bruker DRX 600 and AVANCE III HD 700 spectrometers. Typically, NMR samples contained 0.1–0.5 mM uniformly ^13C and/or ^15N-enriched protein in PBS buffer at pH 7.4 including 10% D2O [42–44]. All data were processed with either NMRPipe and analyzed with NMR View or TopSpin (www.bruker.com). The backbone assignments were obtained from the BioMagResBank accession numbers 15,199 (PDZ2/3) and 5131 (PDZ2). The interaction between PDZ2 and PDZ3 was analyzed upon titrating PDZ3 to isotopically ^15N-enriched PDZ2 at a molar ratio of 1:1 at 298 K by recording 2D ^1H-^15N-HSQC NMR spectra. In this study, the numbering scheme of the assigned chemical shifts for PDZ2 (5131) and PDZ23 (15199) has been shifted by one residue so that, for example, T30 according to the BMRB entry 5131 now equals T31. […] The differences in backbone ^1H and ^15N NMR chemical shifts were monitored via 2D ^1H-^15N-HSQC NMR spectra. The weighted ^1HN and ^15N chemical shift differences were calculated according to the following equation [45, 47]: […]

[9] = biological target: T6, PRK2 peptide (Homo sapiens); experiment: NMR titration
T6 chain: MFRDFDYIADWC

NMR exchange regime of binding to tandem PDZ2/3 ([6]; 298 K, pH 7.4): fast exchange
Molecule: CC(=O)N[C@@H](CCCCN)C(=O)N[C@@H](CCCNC(=N)N)C(=O)N[C@@H](Cc1c[nH]cn1)C(=O)N[C@@H](CO)C(=O)NCC(=O)N[C@@H](CO)C(=O)N[C@@H](Cc1ccc(O)cc1)C(=O)N[C@@H](CC(C)C)C(=O)N[C@H](C(=O)N[C@H](C(=O)N[C@@H](CO)C(=O)N[C@H](C(=O)O)C(C)C)[C@@H](C)O)C(C)C [APC]
Kd [1]: ~721 µM and 721 µM
NMR chemical shift perturbations of PDZ2 on peptide binding [2]: leads to NMR chemical shift differences observed along intra-domain signal pathways as previously predicted
peptide-induced dimerisation of PDZ2 ([2]; comparison of free and APC-bound NMR spectra of individual PDZ2): exclude an APC-induced dimerisation of PDZ2
binding to single PDZ2 domain [3]: able to bind
saturation of PDZ2 resonances at end of titration [4]: no further chemical shift changes were observed for amide resonances originating from the PDZ2 domain
saturation of PDZ3 at end of titration [5]: PDZ3 was not fully saturated at the end of the titration
NMR chemical shift perturbations of PDZ2/3 tandem on titration ([6]; 2D 1H-15N-HSQC, 298 K, pH 7.4): NMR chemical shift perturbations were observed for G12, L19, T31, G63, H94, L95, L97 of PDZ2 and K152 as well as S231 of PDZ3 in the tandem domain
chemical shift differences between single PDZ2-APC complex and PDZ2 in PDZ2/3-APC complex ([6]; APC peptide at molar ratio 1:30, single PDZ2 vs PDZ2 in PDZ2/3): Major NMR chemical shift perturbations were observed on the back of the PDZ2 domain, i.e. opposite to the canonical PDZ binding cleft, mainly for EF (H94, L95, L97) and for EA (L19)

Molecule: CC[C@H](C)[C@H](NC(=O)[C@H](Cc1ccc(O)cc1)NC(=O)[C@H](CC(=O)O)NC(=O)[C@H](Cc1ccccc1)NC(=O)[C@H](CC(=O)O)NC(=O)[C@H](CCCNC(=N)N)NC(=O)[C@H](Cc1ccccc1)NC(=O)[C@H](CCSC)NC(C)=O)C(=O)N[C@@H](C)C(=O)N[C@@H](CC(=O)O)C(=O)N[C@@H](Cc1c[nH]c2ccccc12)C(=O)N[C@@H](CS)C(=O)O [PRK2] (Ac-MFRDFDYIADWC-OH; C-terminus assumed)
Kd [1]: 318 ± 47 µM
NMR chemical shift perturbations of PDZ2 on peptide binding [2]: NMR chemical shift differences were observed for the canonical ligand binding groove of PDZ2 including G23, S24, which are also involved in peptide recognition, and S28, and G31; also recorded: Additional NMR chemical shift perturbations were observed for the β-strands EA and EF of PDZ2, located opposite to its canonical peptide binding groove

Kd [7]: 2570 µM
B1: PTPN13 (PDZ3 in PDZ2/3 tandem) PDZ3 in PDZ2/3 (protein)
chain: EVKLFKNSSGLGFSFSREDNLIPEQINASIVRVKKLFPGQPAAESGKIDVGDVILKVNGASLKGLSQQEVISALRGTAPEVFLLLCRP

B2: PDZ3: single PDZ3 domain (residues 1491–1579) of PTPN13 (protein, UniProt Q12923 1491-1579, looked up, fragment)
chain: YSFVTEENTFEVKLFKNSSGLGFSFSREDNLIPEQINASIVRVKKLFPGQPAAESGKIDVGDVILKVNGASLKGLSQQEVISALRGTAP
modifications: PDZ3 domain
notes: single PDZ3 domain (residues 1491–1579) of PTPN13
chemical shift differences of PDZ2 upon titration with PDZ3 [8]: Only very minor chemical shift differences could be observed, if at all; also recorded: only yielded minor chemical shift differences; also recorded: Only very minor, if at all, chemical shift differences could be observed

Kd [7]: 211 µM
B3: PTPN13 (PDZ2 in PDZ2/3 tandem) PDZ2 in PDZ2/3 (protein)
chain: EVELAKNDNSLGISVTGGVNTSVRHGGIYVKAVIPQGAAESDGRIHKGDRVLAVNGVSLEGATHKQAVETLRNTGQVVHLLLEKG

Kd [9]: 661 µM
Kd [7]: 286 µM
B4: PTPN13 PDZ2 (protein)
chain: DIFEVELAKNDNSLGISVTGGVNTSVRHGGIYVKAVIPQGAAESDGRIHKGDRVLAVNGVSLEGATHKQAVETLRNTGQVVHLLLEKGQSP
